Measurements as given in patent US7202254B2, “Antibacterial compounds: process for their preparation and pharmaceutical compositions containing them” (Dr. Reddy's Laboratories Limited, priority 2002, dated 2007).
Converted amounts (≈) assume the structure as drawn. Values belong to the molecule of their own block, whether it stands above or below them.

How the values were obtained:
[1] = test system: Enterococcus faecalis ATCC 29212; assay: MIC by broth microdilution, Enterococcus sp DRCC 034 (S); type: cell-based; conditions: ATCC29212; DRCC 034 = Enterococcus faecalis ATCC 29212, S; Mueller Hinton Broth, overnight 37° C.; read-out: Antimicrobial Screening (MIC) Enterococcus sp 034 S
Protocol: (§1) Minimum Inhibiton Concentrations (MICs) were determined by broth microdilution technique as per the guidelines prescribed om the fifth edition of Approved Standards, NCCLS document M7-A5 Vol 20-No 2, 2000 Villinova, Pa.
(§2) Initial stock solution of the test compound was prepared in DMSO. Subsequent two fold dilutions were carried out in sterile Mueller Hinton Broth (Difco) (MHB).
(§3) Frozen cultures stocks were inoculated into 50 mL sterile MHB in 250 mL Erlyn Meyer flasks.
(§4) Flasks were incubated for 4 to 5 h at 35° C. on a rotary shaker at 150 rpm. Inoculum was prepared by diluting the culture in sterile MHB to obtain a turbidity of 0.5 McFarland standard. This corresponds to 1–2×10^8 CFU/mL. The stock was further diluted in sterile broth to obtain 1–2×10^6 CFU/mL. 50 μl of the above diluted inoculum was added from 1–10 wells. The plates were incubated overnight at 37° C.

[2] = test system: Escherichia coli ATCC 25922; assay: MIC by broth microdilution, E coli DRCC 18 (S); type: cell-based; conditions: ATCC25922; DRCC 018 = Escherichia coli ATCC 25922, S; Mueller Hinton Broth, overnight 37° C.; read-out: Antimicrobial Screening (MIC) E coli 18 S
Protocol: as §1, §2, §3, §4

[3] = test system: Enterococcus faecium NCTC 12202; assay: MIC by broth microdilution, Enterococcus sp DRCC 154 (R); type: cell-based; conditions: NCTC12202; DRCC 154 = Enterococcus faecium NCTC 12202, R; Mueller Hinton Broth, overnight 37° C.; read-out: Antimicrobial Screening (MIC) Enterococcus sp 154 R
Protocol: as §1, §2, §3, §4

[4] = test system: Staphylococcus aureus ATCC 49951; assay: MIC by broth microdilution, Staphylococcus aureus DRCC 213 (Smith S); type: cell-based; conditions: ATCC49951, DRCC 213 = ATCC 49951, Smith S, Mueller Hinton Broth, overnight 37° C., read-out: Antimicrobial Screening (MIC) Staphylococcus aureus 213 Smith S
Protocol: as §1, §2, §3, §4

[5] = test system: Staphylococcus aureus ATCC 33591; assay: MIC by broth microdilution, Staphylococcus aureus DRCC 019 (MRSA); type: cell-based; conditions: DRCC 019 = ATCC 33591, MRSA, Mueller Hinton Broth, overnight 37° C., read-out: Antimicrobial Screening (MIC) Staphylococcus aureus 019 MRSA
Protocol: as §1, §2, §3, §4

[6] = test system: Enterococcus faecalis NCTC 12201; assay: MIC by broth microdilution, Enterococcus sp DRCC 153 (R); type: cell-based; conditions: NCTC12201; DRCC 153 = Enterococcus faecalis NCTC 12201, R; Mueller Hinton Broth, overnight 37° C.; read-out: Antimicrobial Screening (MIC) Enterococcus sp 153 R
Protocol: as §1, §2, §3, §4

[7] = test system: Staphylococcus aureus ATCC 29213; assay: MIC by broth microdilution, Staphylococcus aureus DRCC 035 (S); type: cell-based; conditions: ATCC29213, DRCC 035 = ATCC 29213, S, Mueller Hinton Broth, overnight 37° C., read-out: Antimicrobial Screening (MIC) Staphylococcus aureus 035 S
Protocol: as §1, §2, §3, §4

- MIC [1]: 1 µg/mL (≈ 2.72 µM)
- MIC [2]: 32 µg/mL (≈ 87.1 µM)
- MIC [3]: 1 µg/mL (≈ 2.72 µM)
- MIC [4]: 1 µg/mL (≈ 2.72 µM)
- MIC [5]: 1 µg/mL (≈ 2.72 µM)
- MIC [6]: 1 µg/mL (≈ 2.72 µM)
- MIC [7]: 1 µg/mL (≈ 2.72 µM)
Compound: CSC(=S)NCc1cn(-c2ccc(N3CCOCC3)c(F)c2)nn1 [Example 67, [1-(3-Fluoro-4-morpholin-4-yl-phenyl)-1H-[1,2,3]triazol-4-ylmethyl]-dithiocarbamic acid methyl ester]

- melting point: 215 °C
Compound: O=C(NCc1cn(-c2ccc(N3CCOCC3)c(F)c2)nn1)c1cnccn1 [Example 71, Pyrazine-2-carboxylic acid [1-(3-fluoro-4-morpholin-4-yl-phenyl)-1H-[1,2,3]triazol-4-ylmethyl]-amide]

- melting point: 118 °C
Compound: CSC(=S)OCc1cn(-c2ccc(N3CCOCC3)c(F)c2)nn1 [Example 73, Dithiocarbonic acid O-[1-(3-fluoro-4-morpholin-4-yl-phenyl)-1H-[1,2,3]triazol-4-ylmethyl]ester S-methyl ester]

- melting point: 198 °C
Compound: COC(=S)NCc1cn(-c2ccc(N3CCC(=C(C#N)C#N)CC3)c(F)c2)nn1 [Example 84, {1-[4-(4-Dicyanomethylene-piperidin-1-yl)-3-fluoro-phenyl]-1H-[1,2,3]triazol-4-ylmethyl}-thiocarbamic acid O-methyl ester]

- melting point: 190 to 192 °C
Compound: O=C(NCc1cn(-c2ccc(N3CCSCC3)c(F)c2)nn1)c1ccccn1 [Example 75, N-{1-[3-Fluoro-4-(4-thiomorpholinyl)phenyl]-1H-1,2,3-triazol-4-ylmethyl}-pyridine-2-carboxamide]

- melting point: 141 to 142 °C
Compound: COC(=S)NCc1cn(-c2ccc(N3CCC(=NO)CC3)c(F)c2)nn1 [Example 83, {1-[3-Fluoro-4-(4-hydroxyimino-piperidin-1-yl)-phenyl]-1H-[1,2,3]triazol-4-ylmethyl}-thiocarbamic acid O-methyl ester]

- melting point: 158 to 160 °C
Compound: Fc1cc(-n2cc(CNC(=S)c3ccccn3)nn2)ccc1N1CCSCC1 [Example 81, N-{1-[3-fluoro-4-(−4-thiomorpholinyl)phenyl]-1H-1,2,3-triazol-4-ylmethyl}-pyridine-2-thiocarboxamide]

- melting point: 192 °C
Compound: NC(=S)NCc1cn(-c2ccc(N3CCOCC3)c(F)c2)nn1 [Example 76, [1-(3-Fluoro-4-morpholin-4-yl-phenyl)-1H-[1,2,3]triazol-4-ylmethyl]-thiourea]

- melting point: 145 to 147 °C
Compound: COC(=S)NCc1cn(-c2ccc(N3CCC(=O)CC3)c(F)c2)nn1 [Example 82, {1-[3-Fluoro-4-(4-oxo-piperidin-1-yl)-phenyl]-1H-[1,2,3]triazol-4-ylmethyl}-thiocarbamic acid O-methyl ester]

- melting point: 190 °C
Compound: O=C(NCc1cn(-c2ccc(N3CCOCC3)c(F)c2)nn1)C(Cl)Cl [Example 79, 2,2-Dichloro-N-[1-(3-fluoro-4-morpholin-4-yl-phenyl)-1H-[1,2,3]triazol-4-ylmethyl]-acetamide]

- melting point: 174 to 176 °C
Compound: CS(=O)(=O)NCc1cn(-c2ccc(N3CC[S+]([O-])CC3)c(F)c2)nn1 [Example 80, N-{1-[3-Fluoro-4-(1-oxo-1lambda*4*-thiomorpholin-4-yl)-phenyl]-1H-[1,2,3]triazol-4-ylmethyl}-methanesulfonamide]

- melting point: 175 to 176 °C
Compound: COC(=S)NCc1cn(-c2cc(F)c(N3CCC(=O)CC3)c(F)c2)nn1 [Example 85, {1-[3,5-Difluoro-4-(4-oxo-piperidin-1-yl)-phenyl]-1H-[1,2,3]triazol-4-ylmethyl}thiocarbamic acid O-methyl ester]

The remaining lines, values behind:

Compound: COC(=S)NCc1cn(-c2cc(F)c(N3CCS(=O)(=O)CC3)c(F)c2)nn1 [Example 58, {1-[4-(1,1-Dioxo-1lambda*6*-thiomorpholin-4-yl)-3,5-difluoro-phenyl]-1H-[1,2,3]triazol-4-ylmethyl}-thiocarbamic acid O-methyl ester]
- MIC [1]: 4 µg/mL (≈ 9.58 µM)
- MIC [2]: 32 µg/mL (≈ 76.7 µM)
- MIC [3]: 4 µg/mL (≈ 9.58 µM)
- MIC [4]: 2 µg/mL (≈ 4.79 µM)
- melting point: 162 °C
- MIC [5]: 1 µg/mL (≈ 2.4 µM)
- MIC [6]: 2 µg/mL (≈ 4.79 µM)
- MIC [7]: 2 µg/mL (≈ 4.79 µM)

Compound: COC(=S)NCc1cn(-c2cc(F)c(N3CCSCC3)c(F)c2)nn1 [Example 56, [1-(3,5-Difluoro-4-thiomorpholin-4-yl-phenyl)-1H-[1,2,3]triazol-4-ylmethyl]-thiocarbamic acid O-methyl ester]
- MIC [1]: 2 µg/mL (≈ 5.19 µM)
- MIC [2]: 32 µg/mL (≈ 83 µM)
- MIC [3]: 8 µg/mL (≈ 20.8 µM)
- MIC [4]: 1 µg/mL (≈ 2.59 µM)
- melting point: 127 °C
- MIC [5]: 1 µg/mL (≈ 2.59 µM)
- MIC [6]: 2 µg/mL (≈ 5.19 µM)
- MIC [7]: 2 µg/mL (≈ 5.19 µM)

Compound: COC(=S)NCc1cn(-c2cc(F)c(N3CCOCC3)c(F)c2)nn1 [Example 54, [1-(3,5-Difluoro-4-morpholin-4-yl-phenyl)-1H-[1,2,3]triazol-4-ylmethyl]-thiocarbamic acid O-methyl ester]
- MIC [1]: 4 µg/mL (≈ 10.8 µM)
- MIC [2]: 32 µg/mL (≈ 86.6 µM)
- MIC [3]: 4 µg/mL (≈ 10.8 µM)
- MIC [4]: 2 µg/mL (≈ 5.41 µM)
- melting point: 135 °C
- MIC [5]: 2 µg/mL (≈ 5.41 µM)
- MIC [6]: 4 µg/mL (≈ 10.8 µM)
- MIC [7]: 4 µg/mL (≈ 10.8 µM)

Compound: COC(=S)NCc1cn(-c2ccc(N3CCOCC3)c(F)c2)nn1 [Example 55, [1-(3-Fluoro-4-morpholin-4-yl-phenyl)-1H-[1,2,3]triazol-4-ylmethyl]-thiocarbamic acid O-methyl ester]
- MIC [2]: 32 µg/mL (≈ 91.1 µM)
- MIC [3]: 8 µg/mL (≈ 22.8 µM)
- MIC [4]: 4 µg/mL (≈ 11.4 µM)
- melting point: 148 °C
- MIC [5]: 4 µg/mL (≈ 11.4 µM)
- MIC [6]: 4 µg/mL (≈ 11.4 µM)
- MIC [7]: 4 µg/mL (≈ 11.4 µM)

Compound: CC(=O)NCc1cn(-c2ccc(N3CCSCC3)c(F)c2)nn1 [Example 46, N-[1-(3-Fluoro-4-thiomorpholin-4-yl-phenyl)-1H-[1,2,3]triazol-4-ylmethyl]-acetamide]
- melting point: 207 °C

Compound: CC(=O)NCc1cn(-c2cc(F)c(N3CCS(=O)(=O)CC3)c(F)c2)nn1 [Example 45, N-{1-[4-(1,1-Dioxo-1lambda*6*-thiomorpholin-4-yl)-3,5-difluoro-phenyl]-1H-[1,2,3]triazol-4-ylmethyl}-acetamide]
- melting point: 197 °C

Compound: NCc1cn(-c2cc(F)c(N3CC[S+]([O-])CC3)c(F)c2)nn1 [Example 28, C-{1-[3,5-Difluoro-4-(1-oxo-1lambda*4*-thiomorpholin-4-yl)-phenyl]-1H-[1,2,3]triazol-4-yl}-methylamine]
- melting point: 190 °C

Compound: COC(=S)NCc1cn(-c2cc(F)c(N3CC[S+]([O-])CC3)c(F)c2)nn1 [Example 57, 1-[3,5-Difluoro-4-(1-oxo-1lambda*4*-thiomorpholin-4-yl)-phenyl]-1H-{[1,2,3]triazol-4-ylmethyl}-thiocarbamic acid O-methyl ester]
- melting point: 202 °C

Compound: NNC(=S)NCc1cn(-c2ccc(N3CCSCC3)c(F)c2)nn1 [Example 66, 1-[3-fluoro-4-(4-thiomorpholinyl)phenyl]-1H-1,2,3-triazol-4-ylmethylamino-hydrazinomethanethione]
- melting point: 174 to 176 °C

Compound: CCNC(=S)NCc1cn(-c2ccc(N3CC[S+]([O-])CC3)c(F)c2)nn1 [Example 65, 1-Ethyl-3-{1-[3-fluoro-4-(1-oxo-1lambda*4*-thiomorpholin-4-yl)-phenyl]-1H-[2,3]triazol-4-ylmethyl}-thiourea]
- melting point: 204 °C

Compound: CC(=O)NCc1cn(-c2cc(F)c(N3CCOCC3)c(F)c2)nn1 [Example 41, N-[1-(3,5-Difluoro-4-morpholin-4-yl-phenyl)-1H-[1,2,3]triazol-4-ylmethyl]-acetamide]
- melting point: 218 °C

Compound: CC(=O)NCc1cn(-c2cc(F)c(N3CCSCC3)c(F)c2)nn1 [Example 43, N-[1-(3,5-Difluoro-4-thiomorpholin-4-yl-phenyl)-1H-[1,2,3]triazol-4-ylmethyl]-acetamide]
- melting point: 210 °C

Compound: CNC(=S)NCc1cn(-c2cc(F)c(N3CCOCC3)c(F)c2)nn1 [Example 64, 1-[1-(3,5-Difluoro-4-morpholin-4-yl-phenyl)-1H-[1,2,3]triazol-4-ylmethyl]-3-methyl-thiourea]
- melting point: 181 °C

Compound: COC(=S)NCc1cn(-c2ccc(N3CCS(=N)CC3)c(F)c2)nn1 [Example 63, {1-[3-Fluoro-4-(1-imino-1lambda*4*-thiomorpholin-4-yl)-phenyl]-1H-[1,2,3]triazol-4-ylmethyl}-thiocarbamic acid O-methyl ester]
- melting point: 198 °C
